# Measured values: ChEMBL document CHEMBL1201862, “PubChem BioAssay data set” (2004)
#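 Results reflect a 48-hour exposure of cells in 96-well plates to compound at five concentrations. GI50: concentration for 50% inhibition of growth.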 Active and inactive are the calls of the source. Cut-off read from the data, not from the text of the source: active = GI50 up to about 1.1 µM and inactive = higher.
# Key:
# Test in all cases: NCI-60 cell line screen, 48 h
# SR = system: SR
# HCT-116 = system: HCT-116
# HT-29 = system: HT-29
# SF-268 = system: SF-268
# Malme-3M = system: Malme-3M
# OVCAR-3 = system: OVCAR-3
# NCI-H23 = system: NCI-H23
# OVCAR-5 = system: OVCAR-5
# CCRF-CEM = system: CCRF-CEM
# U-251 = system: U-251
# UO-31 = system: UO-31
# MDA-N = system: MDA-N
# T47D = system: T47D
# NCI/ADR-RES = system: NCI/ADR-RES
# NCI-H460 = system: NCI-H460
# EKVX = system: EKVX
# RXF 393 = system: RXF 393
# MOLT-4 = system: MOLT-4
# COLO 205 = system: COLO 205
# SNB-75 = system: SNB-75
# BT-549 = system: BT-549
# A549 = system: A549
# MDA-MB-231 = system: MDA-MB-231
# SK-MEL-28 = system: SK-MEL-28
# KM12 = system: KM12
# SNB-19 = system: SNB-19
# HOP-62 = system: HOP-62
# OVCAR-8 = system: OVCAR-8
# RPMI-8226 = system: RPMI-8226
# M14 = system: M14
# SN12C = system: SN12C
# HL-60 = system: HL-60
# SK-MEL-2 = system: SK-MEL-2
# 786-0 = system: 786-0
# SK-MEL-5 = system: SK-MEL-5
# HCT-15 = system: HCT-15
# TK-10 = system: TK-10
# K562 = system: K562
# NCI-H522 = system: NCI-H522
# UACC-257 = system: UACC-257
# A498 = system: A498
# CAKI-1 = system: CAKI-1
# MDA-MB-435 = system: MDA-MB-435
# DU-145 = system: DU-145
# SF-539 = system: SF-539
# IGROV-1 = system: IGROV-1
# ACHN = system: ACHN
# SF-295 = system: SF-295
# PC-3 = system: PC-3
# SK-OV-3 = system: SK-OV-3
# MCF7 = system: MCF7
# LOX IMVI = system: LOX IMVI
# Hs-578T = system: Hs-578T
# HCC 2998 = system: HCC 2998
# HOP-92 = system: HOP-92
# UACC-62 = system: UACC-62
# SW-620 = system: SW-620
# OVCAR-4 = system: OVCAR-4
compound,measurement,setting,value
O=C1N[C@@H]2c3c(csc3Br)C(=O)[C@@H]2O1,GI50,SR,26.1 µM (inactive)
same,GI50,HCT-116,27.8 µM (inactive)
same,GI50,HT-29,38.5 µM (inactive)
same,GI50,SF-268,27 µM (inactive)
same,GI50,Malme-3M,32 µM (inactive)
same,GI50,OVCAR-3,20.7 µM (inactive)
same,GI50,NCI-H23,41.7 µM (inactive)
same,GI50,OVCAR-5,74 µM (inactive)
same,GI50,CCRF-CEM,15 µM (inactive)
same,GI50,U-251,24.2 µM (inactive)
same,GI50,UO-31,20.9 µM (inactive)
same,GI50,MDA-N,25.1 µM (inactive)
same,GI50,T47D,28.8 µM (inactive)
same,GI50,NCI/ADR-RES,96.4 µM (inactive)
same,GI50,NCI-H460,43.4 µM (inactive)
same,GI50,EKVX,30.4 µM (inactive)
same,GI50,RXF 393,15.5 µM (inactive)
same,GI50,MOLT-4,19.9 µM (inactive)
same,GI50,COLO 205,35 µM (inactive)
same,GI50,SNB-75,48.4 µM (inactive)
same,GI50,BT-549,38.5 µM (inactive)
same,GI50,A549,51.9 µM (inactive)
same,GI50,MDA-MB-231,43.7 µM (inactive)
same,GI50,SK-MEL-28,33.3 µM (inactive)
same,GI50,KM12,47 µM (inactive)
same,GI50,SNB-19,94 µM (inactive)
same,GI50,HOP-62,53.2 µM (inactive)
same,GI50,OVCAR-8,22.2 µM (inactive)
same,GI50,RPMI-8226,26.9 µM (inactive)
same,GI50,M14,37.3 µM (inactive)
same,GI50,SN12C,42.5 µM (inactive)
same,GI50,HL-60,24.3 µM (inactive)
same,GI50,SK-MEL-2,46.5 µM (inactive)
same,GI50,786-0,33.2 µM (inactive)
same,GI50,SK-MEL-5,> 100 µM (inactive)
same,GI50,HCT-15,31.5 µM
same,GI50,TK-10,27.4 µM (inactive)
same,GI50,K562,21.5 µM (inactive)
same,GI50,NCI-H522,30.1 µM (inactive)
same,GI50,UACC-257,22.4 µM (inactive)
same,GI50,A498,> 100 µM (inactive)
same,GI50,CAKI-1,20.8 µM (inactive)
same,GI50,MDA-MB-435,19.9 µM (inactive)
same,GI50,DU-145,39.1 µM (inactive)
same,GI50,SF-539,33.5 µM (inactive)
same,GI50,IGROV-1,26.5 µM (inactive)
same,GI50,ACHN,37.2 µM (inactive)
same,GI50,SF-295,59.2 µM (inactive)
same,GI50,PC-3,41.6 µM (inactive)
same,GI50,SK-OV-3,90.4 µM (inactive)
same,GI50,MCF7,32.6 µM (inactive)
same,GI50,LOX IMVI,19 µM (inactive)
same,GI50,Hs-578T,31 µM (inactive)
same,GI50,HCC 2998,17.9 µM (inactive)
same,GI50,HOP-92,20.8 µM (inactive)
same,GI50,UACC-62,34.1 µM (inactive)
same,GI50,SW-620,20.2 µM (inactive)
COc1cc(O)c(C(=O)/C=C/c2ccc(O)cc2)cc1Oc1ccc(C(=O)/C=C/c2ccc(O)cc2)c(O)c1 [RHUSCHALCONE IV],GI50,SR,2.38 µM (inactive)
same,GI50,HCT-116,1.8 µM (inactive)
same,GI50,HT-29,1.36 µM (inactive)
same,GI50,SF-268,2.96 µM (inactive)
same,GI50,Malme-3M,2.58 µM (inactive)
same,GI50,OVCAR-3,2.87 µM (inactive)
same,GI50,NCI-H23,2.67 µM (inactive)
same,GI50,OVCAR-5,2.69 µM (inactive)
same,GI50,CCRF-CEM,2.66 µM (inactive)
same,GI50,U-251,1.93 µM (inactive)
same,GI50,UO-31,2.56 µM (inactive)
same,GI50,MDA-N,3.21 µM (inactive)
same,GI50,T47D,2.29 µM (inactive)
same,GI50,NCI/ADR-RES,2.91 µM (inactive)
same,GI50,NCI-H460,2.88 µM (inactive)
same,GI50,EKVX,2.27 µM (inactive)
same,GI50,RXF 393,2.48 µM (inactive)
same,GI50,MOLT-4,3.13 µM (inactive)
same,GI50,COLO 205,1.88 µM (inactive)
same,GI50,SNB-75,4.21 µM (inactive)
same,GI50,OVCAR-4,2.22 µM (inactive)
same,GI50,BT-549,2.92 µM (inactive)
same,GI50,A549,2.96 µM (inactive)
same,GI50,MDA-MB-231,3.6 µM (inactive)
same,GI50,SK-MEL-28,1.95 µM (inactive)
same,GI50,KM12,1.44 µM (inactive)
same,GI50,SNB-19,4.53 µM (inactive)
same,GI50,HOP-62,4.47 µM (inactive)
same,GI50,OVCAR-8,2.59 µM (inactive)
same,GI50,RPMI-8226,2.34 µM (inactive)
same,GI50,M14,3.9 µM (inactive)
same,GI50,SN12C,2.45 µM (inactive)
same,GI50,HL-60,3.65 µM (inactive)
same,GI50,SK-MEL-2,3.36 µM (inactive)
same,GI50,786-0,2.23 µM (inactive)
same,GI50,SK-MEL-5,1.92 µM (inactive)
same,GI50,HCT-15,1.79 µM
same,GI50,TK-10,3.42 µM (inactive)
same,GI50,K562,3.39 µM (inactive)
same,GI50,NCI-H522,1.94 µM (inactive)
same,GI50,UACC-257,6.19 µM (inactive)
same,GI50,A498,2.05 µM (inactive)
same,GI50,CAKI-1,3.5 µM (inactive)
same,GI50,MDA-MB-435,3.4 µM (inactive)
same,GI50,DU-145,2.29 µM (inactive)
same,GI50,SF-539,2.37 µM (inactive)
same,GI50,IGROV-1,1.67 µM (inactive)
same,GI50,ACHN,2.4 µM (inactive)
same,GI50,SF-295,3.76 µM (inactive)
same,GI50,PC-3,3.78 µM (inactive)
same,GI50,SK-OV-3,2.88 µM (inactive)
same,GI50,MCF7,2.69 µM (inactive)
same,GI50,LOX IMVI,3.4 µM (inactive)
same,GI50,Hs-578T,6.52 µM (inactive)
same,GI50,HOP-92,4.36 µM (inactive)
same,GI50,UACC-62,2.33 µM (inactive)
same,GI50,SW-620,3.36 µM (inactive)
